Assay results reported in patent US20040115666A1, “Method for identifying compounds modulating reverse cholesterol transport” (priority 2001, published 2004).

What was measured:
[1] = system: apo A-I expression in HepG2 cells; experiment: apo A-I mRNA expression in HepG2 cells (Northern blot); format: cell-based, human
Method: HepG2 cells were grown in DMEM medium supplemented with 10% fetal calf serum, penicillin/streptomycin, sodium pyruvate and nonessential amino acids and incubated at 37° C in a humidified 5% CO2/95% air atmosphere. […] Total RNA was extracted as previously described (Chomczynski et al., Anal. Biochem., 1987, 162 (1): 156-9) and quantified by Northern Blot hybridization (Peters, J. Biol. Chem., 1997, 272 (43): 27307-12) using human apo A-I and 28S as probes (Peters, J. Biol. Chem., 1997, 272 (43): 27307-12).
HepG2 cells were grown in DMEM medium supplemented with 10% fetal calf serum, penicillin/streptomycin, sodium pyruvate and nonessential amino acids and incubated at 37° C. in a humidified 5% CO2/95% air atmosphere. Total RNA was extracted as previously described (Chomczynski et al., Anal. Biochem., 1987, 162 (1): 156-9) and quantified by Northern Blot hybridization (Peters, J. Biol. Chem., 1997, 272 (43): 27307-12) using human apo A-I and 28S as probes (Peters, J. Biol. Chem., 1997, 272 (43): 27307-12).
(§1) HepG2 were cotransfected as described in example 5. Cellular mRNA was obtained as described above in example 2.

human apo A-I promoter = experiment: luciferase reporter under human apo A-I promoter fragments in HepG2 cells overexpressing hFXR; format: cell-based
Method: HepG2 cells were cotransfected by lipofection with 300 ng of pCDNA3-hFXR vector for FXR expression, 300 ng of pSG5-mRXRα vector and 1 μg of the indicated reporter vectors enabling expression of the luciferase reporter gene under the control of fragments −254/+91, −192/+91 and −40/+91 of the apo A-I promoter. […] Total DNA was adjusted to 2 μg using plasmid pBKS+. After a 3 hour transfection, cells were incubated in the culture medium with bile acids at the indicated concentrations for 36 hours.
HepG2 cells were transfected by lipofection with 300 ng of pCDNA3-hFXR vector for expression of hFXR and 1 μg of the indicated reporter vectors allowing expression of a luciferase reporter gene under the control wild type or mutated fragment −254/+91 of the human apo A-I gene promoter, under the control of the herpes simplex virus thymidine kinase promoter or under the control of three copies of site A or site C of the human apo A-I gene cloned upstream of the herpes simplex virus thymidine kinase promoter. […] The construct containing fragment −254/+91 of the apo A-I promoter in which site A is mutated was obtained by directed mutagenesis of site A, in the wild type construct, using the Quick Change Site directed mutagenesis kit (Stratagene, La Jolla, Calif., USA), oligonucleotide 5′-[…]-3′ (SEQ ID NO: 4) and the complementary oligonucleotide. The construct containing fragment −254/+91 of the apo A-I promoter in which site C is mutated was obtained by directed mutagenesis of site C, in the wild type construct, using the Quick Change Site directed mutagenesis kit (Stratagene, La Jolla, Calif., USA), oligonucleotide 5′-[…]-3′ (SEQ ID NO: 3) and the complementary oligonucleotide. The construct containing fragment −254/+91 of the apo A-I promoter in which sites A and C are mutated was obtained by directed mutagenesis of site A, in the Cmut construct, using the Quick Change Site directed mutagenesis kit (Stratagene, La Jolla, Calif., USA), oligonucleotide 5′-[…]-3′ (SEQ ID NO: 4) and the complementary oligonucleotide. The construct denoted TkpGL3 containing the herpes simplex virus thymidine kinase promoter cloned upstream of a luciferase reporter gene has been previously described (Raspé et al., J. Biol. Chem., 2001, 276 (4): 2865-2871). The C3TK construct containing three copies of site C of the human apo A-I promoter cloned upstream of the herpes simplex virus thymidine kinase promoter and the luciferase reporter gene was obtained by oriented cloning of three copies of the double-stranded oligonucleotide corresponding to the wild type site C sequence (SEQ ID NO: 1) into the SmaI site of vector TkpGL3. The A3TK construct containing three copies of site A of the human apo A-I promoter cloned upstream of the herpes simplex virus thymidine kinase promoter and the luciferase reporter gene was obtained by oriented cloning of three copies of the double-stranded oligonucleotide corresponding to the wild type site A sequence (SEQ ID NO: 2) into the SmaI site of vector TkpGL3. Total DNA was adjusted to 2 μg using plasmid pBKS+. After a 3 hour transfection, cells were incubated in the culture medium with the bile acids at the indicated concentrations for 36 hours.
as §1

[2] = system: site A of the human apo A-I promoter; experiment: luciferase reporter A3TK (three copies of site A upstream of TK promoter) in HepG2 cells overexpressing hFXR; format: cell-based
Method: (§2) HepG2 cells were transfected by lipofection with 300 ng of pCDNA3-hFXR vector for expression of hFXR and 1 μg of the indicated reporter vectors allowing expression of a luciferase reporter gene under the control wild type or mutated fragment −254/+91 of the human apo A-I gene promoter, under the control of the herpes simplex virus thymidine kinase promoter or under the control of three copies of site A or site C of the human apo A-I gene cloned upstream of the herpes simplex virus thymidine kinase promoter. […] The construct containing fragment −254/+91 of the apo A-I promoter in which site A is mutated was obtained by directed mutagenesis of site A, in the wild type construct, using the Quick Change Site directed mutagenesis kit (Stratagene, La Jolla, Calif., USA), oligonucleotide 5′-[…]-3′ (SEQ ID NO: 4) and the complementary oligonucleotide. The construct containing fragment −254/+91 of the apo A-I promoter in which site C is mutated was obtained by directed mutagenesis of site C, in the wild type construct, using the Quick Change Site directed mutagenesis kit (Stratagene, La Jolla, Calif., USA), oligonucleotide 5′-[…]-3′ (SEQ ID NO: 3) and the complementary oligonucleotide. […]

[3] = system: herpes simplex virus thymidine kinase promoter; experiment: luciferase reporter TkpGL3 (TK promoter only) in HepG2 cells overexpressing hFXR; format: cell-based, human; details: overexpression of hFXR, CDCA
Method: as §2

[4] = system: site C of the human apo A-I promoter; experiment: luciferase reporter C3TK (three copies of site C upstream of TK promoter) in HepG2 cells overexpressing hFXR; format: cell-based
Method: as §2

FXR = biological target: T1, FXR (Homo sapiens, UniProt Q96RI1); details: FIG. 4
T1 sequence (Q96RI1 1-472 isoform Q96RI1-2): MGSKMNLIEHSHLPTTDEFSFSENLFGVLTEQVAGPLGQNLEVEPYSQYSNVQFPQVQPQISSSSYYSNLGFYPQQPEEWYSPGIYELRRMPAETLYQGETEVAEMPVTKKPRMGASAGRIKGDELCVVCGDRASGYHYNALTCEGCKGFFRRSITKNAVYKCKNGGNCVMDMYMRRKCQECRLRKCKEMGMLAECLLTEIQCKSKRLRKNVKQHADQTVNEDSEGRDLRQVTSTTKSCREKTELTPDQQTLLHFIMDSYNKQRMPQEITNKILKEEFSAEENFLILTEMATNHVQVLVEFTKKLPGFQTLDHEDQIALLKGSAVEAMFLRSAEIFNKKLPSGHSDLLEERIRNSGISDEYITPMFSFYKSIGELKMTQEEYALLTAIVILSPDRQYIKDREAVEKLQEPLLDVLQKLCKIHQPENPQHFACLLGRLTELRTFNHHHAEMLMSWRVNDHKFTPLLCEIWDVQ

[5] = system: mice transgenic for the human apo A-I gene; details: diet rich in TCA 0.5% m/m, one week
Text: Effect of TCA on Plasma Concentrations of Cholesterol and Apo A-I and on Hepatic Expression of apo A-I in Mice Transgenic for the Human apo A-I Gene (FIG. 1)
Example 1 illustrates the effect of a diet rich in taurocholate on serum cholesterol and human apo A-I levels and on lipid profile and hepatic expression of human apo A-I in transgenic mice expressing the apo A-I gene in a C57BL genetic background.
Ten transgenic mice expressing the apo A-I gene in a C57BL genetic background (IFFA-CREDO, L'Arbresle, France) were genotyped by PCR and divided into two groups of five animals. The first group received a normal diet for one week while the second was given a diet rich in TCA (taurocholic acid, 0.5% m/m). Blood was collected after a 12 hour fast by retroorbital puncture under barbital anesthesia. Serum samples were collected and stored at −20° C. pending analysis. After one week of dietary treatment, animals were sacrificed and liver specimens were collected and frozen for analysis. Human apo A-I levels in serum were measured before and after the diet as previously described (Peters, J. Biol. Chem., 1997, 272 (43): 27307-12). Serum cholesterol and lipid profiles after FPLC were measured as previously described (Raspé et al., J. Lipid Res., 1999, 40 (11): 2099-2110). Total RNA was extracted from liver specimens as previously described (Chomczynski et al., Anal. Biochem., 1987, 162 (1): 156-9) and quantified by Northern Blot hybridization (Peters, 1997) using human apo A-I and 28S as probes (Peters, J. Biol. Chem., 1997, 272 (43): 27307-12).

[6] = system: FXR (hFXR) (Homo sapiens); experiment: cell_activity; details: 1 µM GW4064, HepG2
[7] = overexpression of hFXR and mRXRα, CDCA, 36 hours
[8] = overexpression of hFXR, panel A
[9] = hFXR overexpression, 1 μM GW4064, in words

## C[C@H](CCC(=O)O)[C@H]1CC[C@H]2[C@@H]3[C@H](O)C[C@@H]4C[C@H](O)CC[C@]4(C)[C@H]3CC[C@]12C [CDCA, chenodeoxycholic acid]
[1]; 50 μM
  apo A-I expression in HepG2 cells: considerably reduces
[1]; CDCA 50 μM, 12-h preincubation with actinomycin D (5 g/ml)
  effect on apo A-I expression after actinomycin D preincubation: offset
[1]; increasing concentrations
  apo A-I expression in HepG2 cells: reduce
Human apo A-I promoter; [7]
  activity of fragment −40/+91 (minimal promoter) of the apo A-I gene promoter: not
  activity of fragment −192/+91 of the apo A-I gene promoter: represses
  activity of fragment −254/+91 of the apo A-I gene promoter: represses
Human apo A-I promoter; overexpression of hFXR, CDCA
  activity of fragment −254/+91 with site A mutated (A mut construct): represses
  activity of wild type fragment −254/+91 (wt construct): represses
Human apo A-I promoter; [8]
  activity of fragment −254/+91 with site C mutated (C mut construct): transcriptional activation
  activity of fragment −254/+91 with sites A and C mutated (AC mut construct): loss of response
[2]; overexpression of hFXR, CDCA
  activity of construct A3TK: activated
[3]
  activity of construct TkpGL3: not affected
[4]; overexpression of hFXR, CDCA
  activity of construct C3TK: represses

## CC(C)c1onc(-c2c(Cl)cccc2Cl)c1COc1ccc(/C=C/c2cccc(C(=O)O)c2)c(Cl)c1 [GW4064]
[1]; GW4064, in words
  apo A-I expression in HepG2 cells: markedly reduces
Human apo A-I promoter; [9]
  activity of fragment −254/+91 of the human apo A-I promoter (construct ABC): represses
[2]; hFXR overexpression, GW4064, in words
  activity of construct A3TK: activated
[4]; [9]
  activity of construct C3TK: represses

## C[C@H](CCC(=O)NCCS(=O)(=O)O)[C@H]1CC[C@H]2[C@@H]3[C@H](O)C[C@@H]4C[C@H](O)CC[C@]4(C)[C@H]3C[C@H](O)[C@]12C [TCA, taurocholic acid]
[1]; increasing concentrations
  apo A-I expression in HepG2 cells: reduce
FXR
  FXR activation: activate
[5]
  hepatic expression of apo A-I: reduces
  plasma concentrations of apo A-I: reduces
  plasma concentrations of cholesterol: reduces

## apo A-I promoter -254/+91
[6]; construct ABC, repression
  activity (% of control luciferase): 56.8

## apo A-I promoter site A wt
[6]; A3TK, three copies, activation
  activity (% of control luciferase): 1120

## apo A-I promoter site C wt
[6]; C3TK, three copies, repression
  activity (% of control luciferase): 61.8
